Test results from PubChem BioAssay (NCI).
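Method: 48-hour compound exposure of cells in 96-well plates, five concentrations, linear interpolation of endpoints. Definition used: TGI = concentration required for complete inhibition of growth.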

Experiments:
Experiment in all cases: inhibition of tumour cell growth, NCI panel, 48 h
[1] = tested on: 786-0 renal
[2] = tested on: A498 renal
[3] = tested on: A549 NSCLC
[4] = tested on: ACHN renal
[5] = tested on: BT-549 breast
[6] = tested on: CAKI-1 renal
[7] = tested on: COLO 205 colon
[8] = tested on: DU-145 prostate
[9] = tested on: EKVX NSCLC
[10] = tested on: HCC-2998 colon
[11] = tested on: HCT-116 colon
[12] = tested on: HCT-15 colon
[13] = tested on: HOP-62 NSCLC
[14] = tested on: HOP-92 NSCLC
[15] = tested on: HS 578T breast
[16] = tested on: HT29 colon
[17] = tested on: IGROV1 ovarian
[18] = tested on: K-562 leukemia
[19] = tested on: KM12 colon
[20] = tested on: LOX IMVI melanoma
[21] = tested on: M14 melanoma
[22] = tested on: MALME-3M melanoma
[23] = tested on: MCF7 breast
[24] = tested on: MDA-MB-231 breast
[25] = tested on: MDA-MB-435
[26] = tested on: MDA-N
[27] = tested on: MOLT-4 leukemia
[28] = tested on: NCI-H226 lung
[29] = tested on: NCI-H23 lung
[30] = tested on: NCI-H460 lung
[31] = tested on: NCI-H522 lung
[32] = tested on: NCI/ADR-RES ovarian
[33] = tested on: OVCAR-3 ovarian
[34] = tested on: OVCAR-4 ovarian
[35] = tested on: OVCAR-5 ovarian
[36] = tested on: OVCAR-8 ovarian
[37] = tested on: PC-3 prostate
[38] = tested on: RPMI-8226 leukemia
[39] = tested on: RXF 393 renal
[40] = tested on: SF-268 CNS
[41] = tested on: SF-295 CNS
[42] = tested on: SF-539 CNS
[43] = tested on: SK-MEL-2 melanoma
[44] = tested on: SK-MEL-28 melanoma
[45] = tested on: SK-MEL-5 melanoma
[46] = tested on: SK-OV-3 ovarian
[47] = tested on: SN12C renal
[48] = tested on: SNB-19 CNS
[49] = tested on: SNB-75 CNS
[50] = tested on: SR leukemia
[51] = tested on: SW-620 colon
[52] = tested on: T-47D breast
[53] = tested on: TK-10 renal
[54] = tested on: U251 CNS
[55] = tested on: UACC-257 melanoma
[56] = tested on: UACC-62 melanoma
[57] = tested on: UO-31 renal
[58] = tested on: CCRF-CEM leukemia
[59] = tested on: HL-60(TB) leukemia

## COc1ccc(/C=C(\C(=C/c2ccc(OC)cc2)[N+](=O)[O-])[N+](=O)[O-])cc1
[1]
  TGI: 4.96 µM
[2]
  TGI: 79 µM
[3]
  TGI: > 61.3 µM
[4]
  TGI: 17.1 µM
[5]
  TGI: 21.4 µM
[6]
  TGI: 8.87 µM
[7]
  TGI: 21.6 µM
[8]
  TGI: 24.6 µM
[9]
  TGI: 29.8 µM
[10]
  TGI: 30.9 µM
[11]
  TGI: 24.8 µM
[12]
  TGI: 6.18 µM
[13]
  TGI: 21.2 µM
[14]
  TGI: 10 µM
[15]
  TGI: 43.9 µM
[16]
  TGI: 11.1 µM
[17]
  TGI: 15.4 µM
[18]
  TGI: > 34.5 µM
[19]
  TGI: 36.2 µM
[20]
  TGI: 5 µM
[21]
  TGI: 18.2 µM
[22]
  TGI: 11.9 µM
[23]
  TGI: 27.3 µM
[24]
  TGI: 5.56 µM
[25]
  TGI: 12.1 µM
[26]
  TGI: 8.89 µM
[27]
  TGI: > 70.4 µM
[28]
  TGI: 33 µM
[29]
  TGI: 16 µM
[30]
  TGI: 12.2 µM
[31]
  TGI: 8.8 µM
[32]
  TGI: 7.94 µM
[33]
  TGI: 71.4 µM
[34]
  TGI: 27.1 µM
[35]
  TGI: 35.4 µM
[36]
  TGI: 5.97 µM
[37]
  TGI: > 39.7 µM
[38]
  TGI: 13 µM
[39]
  TGI: 4.33 µM
[40]
  TGI: 20.8 µM
[41]
  TGI: 30.2 µM
[42]
  TGI: 5.71 µM
[43]
  TGI: 39.7 µM
[44]
  TGI: 6.76 µM
[45]
  TGI: 15.9 µM
[46]
  TGI: 32.4 µM
[47]
  TGI: 10.1 µM
[48]
  TGI: 30.2 µM
[49]
  TGI: 68.6 µM
[50]
  TGI: > 100 µM
[51]
  TGI: 7.87 µM
[52]
  TGI: 35.7 µM
[53]
  TGI: 12.2 µM
[54]
  TGI: 8.52 µM
[55]
  TGI: 17.1 µM
[56]
  TGI: 9.38 µM
[57]
  TGI: 16.7 µM

## O=C(/C=C/c1ccc(-c2ccccc2)cc1)NCc1ccc(C(=O)NCCc2c[nH]c3ccccc23)cc1
[1]
  TGI: 26.7 µM
[2]
  TGI: 80.4 µM
[3]
  TGI: 60.4 µM
[4]
  TGI: > 100 µM
[5]
  TGI: > 100 µM
[6]
  TGI: 40.7 µM
[58]
  TGI: 32.1 µM
[7]
  TGI: > 100 µM
[8]
  TGI: > 100 µM
[9]
  TGI: 94.8 µM
[10]
  TGI: > 100 µM
[11]
  TGI: > 100 µM
[12]
  TGI: > 100 µM
[13]
  TGI: 36.7 µM
[14]
  TGI: > 100 µM
[15]
  TGI: > 100 µM
[16]
  TGI: 29.3 µM
[17]
  TGI: > 100 µM
[18]
  TGI: 45.6 µM
[19]
  TGI: > 100 µM
[20]
  TGI: > 100 µM
[21]
  TGI: > 100 µM
[22]
  TGI: > 100 µM
[23]
  TGI: > 100 µM
[24]
  TGI: 42.1 µM
[25]
  TGI: > 100 µM
[26]
  TGI: > 100 µM
[27]
  TGI: 38.8 µM
[28]
  TGI: 60.1 µM
[29]
  TGI: > 100 µM
[30]
  TGI: > 100 µM
[31]
  TGI: > 100 µM
[32]
  TGI: > 100 µM
[33]
  TGI: 92.6 µM
[34]
  TGI: 72.1 µM
[35]
  TGI: 66.6 µM
[36]
  TGI: > 100 µM
[37]
  TGI: > 100 µM
[38]
  TGI: > 100 µM
[39]
  TGI: > 100 µM
[40]
  TGI: > 100 µM
[41]
  TGI: 38.6 µM
[42]
  TGI: > 100 µM
[43]
  TGI: > 100 µM
[44]
  TGI: > 100 µM
[45]
  TGI: > 100 µM
[46]
  TGI: 35.2 µM
[47]
  TGI: 23.8 µM
[48]
  TGI: 53.6 µM
[49]
  TGI: 42.8 µM
[50]
  TGI: > 100 µM
[51]
  TGI: > 100 µM
[52]
  TGI: > 100 µM
[53]
  TGI: 86.8 µM
[54]
  TGI: > 100 µM
[55]
  TGI: > 100 µM
[56]
  TGI: > 100 µM
[57]
  TGI: > 100 µM

## CC(C)[C@H]1NC(=O)[C@H]2N=C(O[C@@H]2C)[C@@H]2CCCN2C(=O)[C@H](Cc2ccccc2)NC(=O)[C@@H]2CSC(=N2)[C@@H](Cc2ccccc2)NC(=O)[C@@H]2CSC1=N2
[1]
  TGI: > 100 µM
[2]
  TGI: > 100 µM
[3]
  TGI: > 100 µM
[4]
  TGI: > 100 µM
[5]
  TGI: > 100 µM
[6]
  TGI: > 100 µM
[58]
  TGI: > 100 µM
[7]
  TGI: > 100 µM
[8]
  TGI: > 100 µM
[9]
  TGI: > 100 µM
[10]
  TGI: > 100 µM
[11]
  TGI: > 100 µM
[12]
  TGI: > 100 µM
[59]
  TGI: > 100 µM
[13]
  TGI: > 100 µM
[15]
  TGI: > 100 µM
[16]
  TGI: > 100 µM
[17]
  TGI: > 100 µM
[18]
  TGI: > 100 µM
[19]
  TGI: > 100 µM
[20]
  TGI: > 100 µM
[21]
  TGI: > 100 µM
[22]
  TGI: > 100 µM
[23]
  TGI: > 100 µM
[24]
  TGI: > 100 µM
[25]
  TGI: > 100 µM
[26]
  TGI: > 100 µM
[27]
  TGI: > 100 µM
[28]
  TGI: > 100 µM
[29]
  TGI: > 100 µM
[31]
  TGI: > 100 µM
[32]
  TGI: > 100 µM
[33]
  TGI: > 100 µM
[34]
  TGI: > 100 µM
[35]
  TGI: > 100 µM
[36]
  TGI: > 100 µM
[37]
  TGI: > 100 µM
[38]
  TGI: 94.9 µM
[39]
  TGI: > 100 µM
[40]
  TGI: > 100 µM
[41]
  TGI: > 100 µM
[42]
  TGI: > 100 µM
[43]
  TGI: > 100 µM
[44]
  TGI: > 100 µM
[45]
  TGI: > 100 µM
[46]
  TGI: > 100 µM
[47]
  TGI: > 100 µM
[48]
  TGI: > 100 µM
[50]
  TGI: > 100 µM
[51]
  TGI: > 100 µM
[52]
  TGI: > 100 µM
[53]
  TGI: > 100 µM
[54]
  TGI: > 100 µM
[55]
  TGI: > 100 µM
[56]
  TGI: > 100 µM
[57]
  TGI: > 100 µM
